Results taken from patent US20230303712A1, “METHODS OF TREATING GLIOBLASTOMA” (Ramot at Tel-Aviv University Ltd., priority 2020, published 2023).
“Also recorded” adds a separate entry of the source.

Experiments:
[1] = biological target: T1, L-Selectin (Homo sapiens, UniProt P14151); conditions: cited from earlier work
T1 sequence (P14151 39-372): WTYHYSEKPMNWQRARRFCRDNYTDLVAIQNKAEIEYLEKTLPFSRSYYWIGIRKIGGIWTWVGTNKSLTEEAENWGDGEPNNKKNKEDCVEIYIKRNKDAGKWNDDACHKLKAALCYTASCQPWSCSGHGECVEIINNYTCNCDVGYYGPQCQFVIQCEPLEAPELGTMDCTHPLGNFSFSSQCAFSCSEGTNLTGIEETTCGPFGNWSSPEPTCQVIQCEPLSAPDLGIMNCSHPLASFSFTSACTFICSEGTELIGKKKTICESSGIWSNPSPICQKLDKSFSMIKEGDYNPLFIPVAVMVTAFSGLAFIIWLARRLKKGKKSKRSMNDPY

[2] = Blood chemistry and blood count after systemic SELPi; format: in vivo, c57/BL mice; conditions: single IV dose 16 mg/kg, healthy mice, 24 h
Method: To test the effect of SELPi treatment in vivo on mice blood chemistry and blood count, c57/BL mice were injected with 16 mg/kg SELPi IV. Twenty-four hours following injecting, mice were euthanized and blood was collected. Blood samples were analyzed by AML Ltd (Herzliya, Israel). For all models, 50 × 10^3 GB cells were stereotactically injected in 5 µl at 1 µl/min flow rate. Injection coordination relative to the mouse Bregma point were: 2 mm lateral (left), 0.5 mm anterior, 3.5 mm ventral.

[3] = tested on: iAGR53 tumors; assay: SELPi treatment in murine mesenchymal iAGR53 GB model; format: in vivo, C57BL/6 mice; conditions: iAGR53, 16 mg/kg SELPi IV QOD
Method: Tumor volume was evaluated by MRI. […] Twelve days post cell inoculation, 3 mice per group were euthanized and brain were resected and further processed for histology analysis. […] Brain cannulas (NBT) were implanted intraventricularly in the co-lateral hemisphere and the mice were treated stereotactically via the cannulas (1 µl at 0.2 µl/min flow rate) with PBS, 2 mg/kg SELPi dissolved in DMSO or vehicle (DMSO). Three weeks post cell-inoculation, the mice were euthanized, the cannulas were removed, and tumor volume was evaluated by MRI (MR solutions). Brains were resected for immunostaining.
SELPi treatments. KF 38789 (SELPi) is a commercially-available P-Selectin inhibitor manufactured by Tocris BioScience. […] This compound is commonly used for research of immune-related processes such as tumor metastases formation. For the experiment described above, SELPi (0.8 mg/ml) was dissolved in DMSO (0.01%), polyethyleneglycol (93.2 mg/ml), Tween-80 (14.8 mg/ml) and DDW. Mice were injected with 16 mg/kg IV, twice a week, three times a week or QOD as described above. As control (vehicle), mice were injected with DMSO (0.01%), polyethyleneglycol (93.2 mg/ml), Tween-80 (14.8 mg/ml), in DDW at equivalent volume.
MRI imaging. Tumor bearing mice were imaged at the Sackler Cellular & Molecular Imaging Center (SCMIC), Tel Aviv University. […]

[4] = tested on: human microglia; assay: Flow cytometry of CD163 and CD206 expression by microglia; format: cell-based; conditions: PD-GB4 CM with rSELP, or SELPi added to PD-GB4 CM
Method: Flow cytometry. For flow cytometry assays, cells were harvested using a cell scraper, and were then washed with PBS followed by additional washes with PBS supplemented with 1% BSA and 5 mM EDTA (FACS buffer). Tumor spheroids were recovered from Matrigel using Cell Recovery Solution (Corning) and washed with FACS buffer. To validate the purity of the microglia preparations, CD11b isolated cells or human microglia were incubated with TMEM119 and P2Y12-labeled antibodies for 1 h. For human TMEM119, primary antibody was unlabeled and cells were washed and incubated with secondary, Alexa 488 conjugated antibody. To assess P-Selectin and PSGL-1 expression, GB cells and microglia were seeded alone, co-cultured in a 2D petri dish, or grown as spheroids seeded in Matrigel. Cells were treated with control medium or CM for 48 h. They were then incubated with mouse anti-human P-Selectin antibody for 1 h on ice, and then were washed, and incubated with Alexa-488 labeled anti-mouse IgG binding protein for 1 h on ice. Alternatively, cells were incubated with rat anti-human PSGL antibody, and then were washed, and incubated with goat anti-rat, Alexa-488 labeled antibody for 1 h on ice. […] Fluorescence intensity was assessed using either an Attune flow cytometer (Life Technologies) or a Gallios™ flow cytometer (Beckman Coulter, USA) and the results were analyzed by Kaluza software (Beckman Coulter, USA).

COc1ccc(C2CC(c3c(O)cc(C)oc3=O)=NCCS2)c(OC)c1 (stereo not drawn) [SELPi, 3-[7-(2,4-Dimethoxyphenyl)-2,3,6,7-tetrahydro-1,4-thiazepin-5-yl]-4-hydroxy-6-methyl-2H-pyran-2-one]
inhibiting effect on L-Selectin [1]: no inhibiting effects
complete blood count: blood lymphocytes [2]: increase in the absolute amount of blood lymphocytes
blood chemistry ([2]; vs saline, vehicle): no significant changes
survival [3]: prolonged the survival
tumor volume (MRI) [3]: significant reduction in tumor volume; also recorded: reduced tumor growth
CD206 expression [4]: reduced CD206 expression
